Laboratory results from patent EP2736507B1, “BASIC ALPHA LIPOIC ACID SOLUTION AND ITS USES” (ITAPHARMA S.R.L., priority 2011, dated 2013).

What was measured:
HepG2 cells [1] = test: Cell vitality (ATP lite kit); format: cell-based, human; conditions: for Vitality %): [conc.]final 1.0 mM, HepG2, 72-hour (3x24 hr) treatment, control = 100
Protocol: In order to analyse the effects of the solution of the invention, alpha lipoic acid contained therein was digested in artificial gastric juice and subsequently administered in the culture medium at the final concentration of 0.5 or 1mM. The cell vitality effects recorded were compared with those achieved in a parallel control experiment wherein alpha lipoic acid dissolved in a solvent of election for cell studies, i.e. DMSO (but not digested in gastric juice) was used. […]

HepG2 cells [2] = test: Glucose in the medium, insulin-resistant diabetes cellular model (Glucose assay kit); format: cell-based, human; conditions: 1 mM for 48 hr; HepG2 in medium enriched with glucose 30mM; reference control = 100%
Protocol: Lastly, the hypoglycaemia-inducing action of the lipoic acid formulated in aqueous solution of the invention was also evaluated, by utilising an insulin-resistant diabetes cellular model. HepG2 cells cultivated in a medium enriched with glucose and free of insulin mimicked certain conditions present in the hepatocytes of diabetic patients; in addition, certain functions of the culture medium, considered as a container of nutritional substances and an accumulation container for those substances excreted, could be compared to plasma circulation. […]
Table 11 reports some of the most significant results achieved by using the Sigma Aldrich Glucose assay kit to determine the glucose; more specifically, the values obtained from the culture medium following administration for 48 hr of lipoic acid (1mM) prepared in DMSO or formulated in aqueous solution at 30 % of propylene glycol, in accordance with the present invention. The most significant decrease in glucose was in fact observed with the R-enantiomer of alpha lipoic acid in the solution of the invention.

SK-N-SH cell cultures = test: ROS induced from H2O2 in cell cultures; format: cell-based, human; conditions: for Ros (% compared to ctrl) 24h: 24h pre-treatment, then 2 hours 1.5mM mM H2O2; for Ros (% compared to ctrl) 48h: 48h pre-treatment, then H2O2
Protocol: Another important function ascribable to lipoic acid is that of contrasting the formation of reactive species of oxygen induced from H2O2. […] A further aim was to verify whether R-alpha lipoic acid retained this function also in an aqueous solution. For this reason, increasing doses of the same, coming from the above-used solution of the invention and subjected to digestion in artificial gastric juice, were added to the culture medium for different intervals of time (24 hr and 48 hr) before inducing an oxidative stress with H2O2. The same reaction was performed as a control, by using the R-alphaLA prepared in DMSO, but dissolved directly in medium to obtain the same working concentrations.
In Table 10, the values of ROS are reported as % with respect to those observed in the controls after 24 hours of maintenance in the culture and 2 hours of treatment with 1.5mM mM H2O2. In the first box of the Table, the results are shown as obtained after administration of R-alphaLA prepared in DMSO and then diluted directly in the medium to obtain the reference final concentrations; in the second box, on the other hand, R-alphaLA was first dissolved in the solution of the invention, subsequently digested in gastric juice and finally diluted in the medium. As summarised in Table 10, in each case, a dose-dependent response of alpha lipoic acid in preventing the formation of the ROS was observed over the first 24 hours.

[3] = humans, oral route, 600 mg, various formulations; cited from earlier work

SMILES | Vitality %) (HepG2 cells [1]) [%] | Glucose in the medium (%) (HepG2 cells [2]) | cell vitality values compared to the control (HepG2 cells [1]; 1mM, 48-hr treatment, dissolved in DMSO, HepG2, previous tests) | Ros (% compared to ctrl) 24h (SK-N-SH cell cultures; 100µM) [%] | Ros (% compared to ctrl) 48h (SK-N-SH cell cultures; 100µM) [%] | Ros (% compared to ctrl) 24h (SK-N-SH cell cultures; 200µM) [%] | Ros (% compared to ctrl) 48h (SK-N-SH cell cultures; 200µM) [%] | bioavailability [3]
O=C(O)CCCCC1CCSS1 (racemic) [(RS) alphaLA (in DMSO), alpha lipoic acid] | 35.48 | – | – | – | – | – | – | –
O=C(O)CCCC[C@@H]1CCSS1 [(R) alphaLA (in DMSO), alpha-R-lipoic acid] | 40.33 | 89 | halved | 77.87 | 99.26 | 49.18 | 103.98 | –
O=C(O)CCCCC1CCSS1 (stereo not drawn) [lipoic acid, 1,2-dithiolane-3-pentanoic acid] | – | – | – | – | – | – | – | less than 30%
